From ChEMBL document CHEMBL1141939, “Structure-activity relationship studies on a series of cyclohexylpiperazines bearing a phanylacetamide as ligands of the human melanocortin-4 receptor” (Bioorg Med Chem Lett, 2005)

How the values were obtained:
Melanocortin receptor 4 [1] = molecular target: T1, Melanocortin receptor 4 (Homo sapiens, UniProt P32245); experiment: biochemical; type: cell-based, HEK293
Description: Displacement of [125I]NDP-MSH from human MC4R expressed in HEK293 cells

Melanocortin receptor 4 [2] = molecular target: T1, Melanocortin receptor 4; experiment: cAMP stimulation in HEK293 cells transfected with human MC4R; type: functional, cell-based

T1 sequence (P32245 whole entry): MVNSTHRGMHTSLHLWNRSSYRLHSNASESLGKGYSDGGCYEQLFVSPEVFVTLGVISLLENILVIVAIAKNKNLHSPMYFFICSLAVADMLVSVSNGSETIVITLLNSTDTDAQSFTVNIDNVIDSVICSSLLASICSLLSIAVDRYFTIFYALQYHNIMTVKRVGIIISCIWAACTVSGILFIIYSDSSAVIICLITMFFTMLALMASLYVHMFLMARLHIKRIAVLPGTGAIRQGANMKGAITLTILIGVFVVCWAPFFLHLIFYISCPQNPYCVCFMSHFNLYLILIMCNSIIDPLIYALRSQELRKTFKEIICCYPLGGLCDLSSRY

| Ki (Melanocortin receptor 4 [1]) | EC50 (Melanocortin receptor 4 [2]) | Emax (Melanocortin receptor 4 [2]) | SMILES |
| --- | --- | --- | --- |
| 160 nM |  |  | CCC(=O)N[C@H](Cc1ccc(Cl)cc1)C(=O)N1CCN(C2(CNC(=O)Cc3ccccc3)CCCCC2)CC1 |
| 300 nM |  |  | CC(C)C(=O)N[C@H](Cc1ccc(Cl)cc1)C(=O)N1CCN(C2(CNC(=O)Cc3ccccc3)CCCCC2)CC1 |
| 130 nM |  |  | O=C(Cc1ccccc1)NCC1(N2CCN(C(=O)[C@@H](Cc3ccc(Cl)cc3)NC(=O)C3CC3)CC2)CCCCC1 |
| 100 nM |  |  | O=C(Cc1ccccc1)NCC1(N2CCN(C(=O)[C@@H](Cc3ccc(Cl)cc3)NC(=O)c3ccco3)CC2)CCCCC1 |
| 1000 nM |  |  | CCC(CC)C(=O)N[C@H](Cc1ccc(Cl)cc1)C(=O)N1CCN(C2(CNC(=O)Cc3ccccc3)CCCCC2)CC1 |
| 110 nM |  |  | CC(=O)N[C@H](Cc1ccc(Cl)cc1)C(=O)N1CCN(C2(CNC(=O)Cc3ccccc3)CCCCC2)CC1 |
| 750 nM | 570 nM | 43% | CC(C)(C)CC(=O)N[C@H](Cc1ccc(Cl)cc1)C(=O)N1CCN(C2(CNC(=O)Cc3ccccc3)CCCCC2)CC1 |
| 170 nM |  |  | COCC(=O)N[C@H](Cc1ccc(Cl)cc1)C(=O)N1CCN(C2(CNC(=O)Cc3ccccc3)CCCCC2)CC1 |
| 80 nM |  |  | O=C(Cc1ccccc1)NCC1(N2CCN(C(=O)[C@@H](Cc3ccc(Cl)cc3)NC(=O)Cc3cccs3)CC2)CCCCC1 |
| 140 nM |  |  | O=C(Cc1ccccc1)NCC1(N2CCN(C(=O)[C@@H](Cc3ccc(Cl)cc3)NC(=O)C3CCC3)CC2)CCCCC1 |
| 100 nM | 300 nM | 63% | CN(C)CC(=O)N[C@H](Cc1ccc(Cl)cc1)C(=O)N1CCN(C2(CNC(=O)Cc3ccccc3)CCCCC2)CC1 |
| 150 nM |  |  | CCCCC(=O)N[C@H](Cc1ccc(Cl)cc1)C(=O)N1CCN(C2(CNC(=O)Cc3ccccc3)CCCCC2)CC1 |
| 280 nM |  |  | CC(C)COC(=O)N[C@H](Cc1ccc(Cl)cc1)C(=O)N1CCN(C2(CNC(=O)Cc3ccccc3)CCCCC2)CC1 |
| 210 nM |  |  | CCCC(=O)N[C@H](Cc1ccc(Cl)cc1)C(=O)N1CCN(C2(CNC(=O)Cc3ccccc3)CCCCC2)CC1 |
| 270 nM |  |  | CC(C)CC(=O)N[C@H](Cc1ccc(Cl)cc1)C(=O)N1CCN(C2(CNC(=O)Cc3ccccc3)CCCCC2)CC1 |

More lines, now with the values behind:

| SMILES | Ki (Melanocortin receptor 4 [1]) | EC50 (Melanocortin receptor 4 [2]) | Emax (Melanocortin receptor 4 [2]) |
| --- | --- | --- | --- |
| O=C(Cc1ccccc1)NCC1(N2CCN(C(=O)[C@@H](Cc3ccc(Cl)cc3)NC(=O)C3CCCC3)CC2)CCCCC1 | 230 nM |  |  |
| O=C(Cc1ccccc1)NCC1(N2CCN(C(=O)[C@@H](Cc3ccc(Cl)cc3)NC(=O)c3ccccc3)CC2)CCCCC1 | 84 nM |  |  |
| NC(CC(=O)N[C@H](Cc1ccc(Cl)cc1)C(=O)N1CCN(C2(CNC(=O)Cc3ccccc3)CCCCC2)CC1)c1ccccc1 (stereo partly specified) | 42 nM | 270 nM | 61% |
| NC1(C(=O)N[C@H](Cc2ccc(Cl)cc2)C(=O)N2CCN(C3(CNC(=O)Cc4ccccc4)CCCCC3)CC2)Cc2ccccc2C1 | 140 nM | 280 nM | 49% |
| NC1(C(=O)N[C@H](Cc2ccc(Cl)cc2)C(=O)N2CCN(C3(CNC(=O)Cc4ccccc4)CCCCC3)CC2)CCc2ccccc2C1 (stereo partly specified) | 82 nM | 160 nM | 87% |
| O=C(Cc1ccccc1)NCC1(N2CCN(C(=O)[C@@H](Cc3ccc(Cl)cc3)NC(=O)c3cccnc3)CC2)CCCCC1 | 60 nM |  |  |
| O=C(Cc1ccccc1)NCC1(N2CCN(C(=O)[C@@H](Cc3ccc(Cl)cc3)NC(=O)CC3Cc4ccccc4CN3)CC2)CCCCC1 (stereo partly specified) | 16 nM | 37 nM | 96% |
| O=C(Cc1ccccc1)NCC1(N2CCN(C(=O)[C@@H](Cc3ccc(Cl)cc3)NC(=O)Cc3ccccc3F)CC2)CCCCC1 | 180 nM |  |  |
| NC(Cc1ccccc1)C(=O)N[C@H](Cc1ccc(Cl)cc1)C(=O)N1CCN(C2(CNC(=O)Cc3ccccc3)CCCCC2)CC1 (stereo partly specified) | 130 nM | 420 nM | 62% |
| O=C(Cc1ccccc1)NCC1(N2CCN(C(=O)[C@@H](Cc3ccc(Cl)cc3)NC(=O)[C@@H]3Cc4ccccc4CN3)CC2)CCCCC1 | 11 nM | 46 nM | 76% |
| NC(Cc1ccncc1)C(=O)N[C@H](Cc1ccc(Cl)cc1)C(=O)N1CCN(C2(CNC(=O)Cc3ccccc3)CCCCC2)CC1 (stereo partly specified) | 120 nM | 590 nM | 54% |
| O=C(Cc1ccccc1)NCC1(N2CCN(C(=O)[C@@H](Cc3ccc(Cl)cc3)NC(=O)c3ccc(F)cc3)CC2)CCCCC1 | 97 nM |  |  |
| O=C(Cc1ccccc1)NCC1(N2CCN(C(=O)[C@@H](Cc3ccc(Cl)cc3)NC(=O)C3Cc4ccccc4N3)CC2)CCCCC1 (stereo partly specified) | 210 nM | 360 nM | 22% |
| NC(C(=O)N[C@H](Cc1ccc(Cl)cc1)C(=O)N1CCN(C2(CNC(=O)Cc3ccccc3)CCCCC2)CC1)c1ccccc1 (stereo partly specified) | 79 nM | 530 nM | 26% |
| O=C(Cc1ccccc1)NCC1(N2CCN(C(=O)[C@@H](Cc3ccc(Cl)cc3)NC(=O)C3NCc4ccccc43)CC2)CCCCC1 (stereo partly specified) | 99 nM | 440 nM | 43% |
| O=C(Cc1ccccc1)NCC1(N2CCN(C(=O)[C@@H](Cc3ccc(Cl)cc3)NC(=O)[C@H]3Cc4ccccc4CN3)CC2)CCCCC1 | 16 nM | 33 nM | 96% |
| O=C(Cc1ccccc1)NCC1(N2CCN(C(=O)[C@@H](Cc3ccc(Cl)cc3)NC(=O)c3cnc4ccccc4c3)CC2)CCCCC1 | 61 nM |  |  |
| NC1(C(=O)N[C@H](Cc2ccc(Cl)cc2)C(=O)N2CCN(C3(CNC(=O)Cc4ccccc4)CCCCC3)CC2)CCc2ccccc21 (stereo partly specified) | 260 nM | 810 nM | 51% |
